Values after ≈ are worked out from the molar mass of the structure shown.
What was measured:
Type in all cases: cell-based
[1] = system: Penicillium funiculosum (PF); test: Fungicidal finish (SM 022) of pure acrylate house paint; conditions: for Fungicidal finish, colonization rating PF: without stress due to leaching
Procedure: In separate batches, the test concentrations of the active compounds/products were incorporated into the house paint, and the fungicidal and/or algistatic finish was determined using the stated test methods.
Incorporation and testing were carried out according to the methods SM 022 and SM 023 below.
This laboratory method was used to determine the resistance of house coatings to fungal attack. For the method, house coatings on standardized paper were used as test substrate, and Aspergillus niger (ATCC 6275) and Penicillium funiculosum (ATCC 36839) were used as test fungi. The experiments were carried out in Petri dishes on dextrose nutrient medium.
50 g of the material to be finished were, in separate batches, mixed with various concentrations of the fungicide to be examined and homogenized for 3-5 min using a basket stirrer.
Paper carrier materials having the dimensions 90×270 mm (Schleicher & Schüll No. 2589 B/X 24078) were coated with the test material. The paint and/or render samples were coated to a wet-layer thickness of 250 μm by knife coating. […] In the case of renders, the layer thickness depended, as in practice, on the particle size. The coated carrier materials, hereinbelow referred to as test bodies, were subsequently dried in a horizontal position for five days.
[…] The cross section of the container for the watering in the direction of flow was 1000±500 cm^2.
From the pretreated test bodies, sample bodies having a diameter of 5 cm were punched out and sterilized in a Co^60 source using at least 10 kGy.
The Sabouraud dextrose agar, which had solidified in the Petri dish, was inoculated with 0.2 ml of spore suspension (10^7 spores/ml) and plated out using a sterile Drigalski spatula or an offset sterile glass rod.
The pretreated sample bodies were then evenly placed onto the inoculated surface of the nutrient medium using a pair of tweezers, making sure that the entire surface of the sample body was in contact with the surface of the nutrient medium. The sample was subsequently incubated at 30±2° C. for three weeks. For other test germs, the incubation temperature had to be adapted to achieve optimum growth.
After one, two and three weeks, the sample bodies were examined for fungal growth. Evaluation was carried out visually or—if this was required to exclude foreign infections—using a magnifying glass. If the extent of the colonization by foreign organisms observed considerably interfered with the evaluation, the experiment could not be evaluated and was repeated. The evaluation of the samples was based on the following evaluation scale:
00—entire plate free from colonization*
0—zone formation (no colonization around the sample)*
(0)—fungal colonization up to the sample*
1—only the sample edge is colonized*
2—the sample is colonized from the edge inwards (less than 25%)
3—the sample surface is colonized by individual colonies (25-75%)
4—the sample surface is colonized extensively (75% and more, but not the entire surface)
5—the sample surface is colonized completely (100%)
*Note: Samples evaluated as 00, 0, (0) and 1 can be referred to as “being effectively finished against fungal growth”.

Fungi suspension = test: Boko test in water-diluted cutting fluids, fungi suspension
Procedure: In separate batches, in each case 100 ml of the water-diluted cutting fluid to be preserved were admixed with various concentrations of the preservatives to be examined. The growth control used was in each case an unpreserved sample. Two days after the incorporation of the preservatives, the test batches were infected for the first time using 1 ml of an inoculating solution. The inoculating solution used was a suspension of the germs listed below (cultivated on nutrient media and then adapted to water-diluted cutting fluids). […] [table] The test batches were subsequently inoculated two times a week and plated onto agar plates two times per week, the first smear being carried out immediately prior to the new inoculation. The microbial growth on the smears was assessed after incubation at 25° C. for three days. […] The preservative effect of the individual product concentrations was assessed in a semiquantitative method by the colonization of the individual smears using the classification from − to +to +++. Growth was differentiated according to bacteria, yeasts and moulds. The test was usually carried out for twelve inoculation cycles or interrupted after repeated +++growth. The cutting fluids Shell Dromus BX or Almasol EP from Castrol or Rondocor Kompakt from Consulta were examined as 4% strength by weight emulsions in tap water from the city of Norderstedt. Inoculation was carried out using a suspension of bacteria or fungi or a mixed suspension of bacteria and fungi.

Alternaria alternata = test: Serial dilution test according to DGHM (MIC); conditions: aqueous 2% by weight strength solution in fully deionized water; unit assumed
Text: (§1) Solutions of in each case 2% strength by weight in fully deionized water were examined against selected bacteria and/or yeasts and/or fungi and/or algae using the serial dilution test according to DGHM [German Society for Hygiene and Microbiology]. MIC values of the aqueous 2% by weight strength solutions: […]

Asperg. niger = test: Serial dilution test according to DGHM (MIC); conditions: aqueous 2% by weight strength solution in fully deionized water; unit assumed
Text: as §1

Cand. albicans = test: Serial dilution test according to DGHM (MIC); conditions: aqueous 2% by weight strength solution in fully deionized water; unit assumed
Text: as §1

Chlorella fusca = test: Serial dilution test according to DGHM (MIC); conditions: aqueous 2% by weight strength solution in fully deionized water; unit assumed
Text: as §1

E. coli = test: Serial dilution test according to DGHM (MIC); conditions: aqueous 2% by weight strength solution in fully deionized water; unit assumed
Text: as §1

Fusarium oxysporum = test: Serial dilution test according to DGHM (MIC); conditions: aqueous 2% by weight strength solution in fully deionized water; unit assumed
Text: as §1

Penicillium funiculosum = test: Serial dilution test according to DGHM (MIC); conditions: aqueous 2% by weight strength solution in fully deionized water; unit assumed
Text: as §1

Pseudomonas aeruginosa = test: Serial dilution test according to DGHM (MIC); conditions: aqueous 2% by weight strength solution in fully deionized water; unit assumed
Text: as §1

Rhodotorula mucilaginosa = test: Serial dilution test according to DGHM (MIC); conditions: aqueous 2% by weight strength solution in fully deionized water; unit assumed
Text: as §1

Aspergillus niger (AN) = test: Fungicidal finish (SM 022) of pure acrylate house paint; conditions: without stress due to leaching

CC1CN(CN2COC(C)C2)CO1 (stereo not shown) [Mar 71, 3,3′-methylenebis-(5-methyloxazolidine)]
Fungicidal activity (in words), PF ([1]; house paint test): no fungicidal activity in practice
Fungicidal finish, colonization rating PF ([1]; use conc. 0.5% W/W, 1. week): 5 (the sample surface is colonized completely (100%))
Fungicidal finish, colonization rating PF ([1]; use conc. 0.5% W/W, 2. week): 5 (the sample surface is colonized completely (100%))
Fungicidal finish, colonization rating PF ([1]; use conc. 1.0% W/W, 1. week): 5 (the sample surface is colonized completely (100%))
Fungicidal finish, colonization rating PF ([1]; use conc. 1.0% W/W, 2. week): 5 (the sample surface is colonized completely (100%))
Fungicidal finish, colonization rating PF ([1]; use conc. 2.0% W/W, 1. week): 3 (the sample surface is colonized by individual colonies (25%-75%))
Fungicidal finish, colonization rating PF ([1]; use conc. 2.0% W/W, 2. week): 4 (the sample surface is colonized extensively (75% and more, but not the entire surface))
Number of inoculation cycles passed on inoculation with Fungi suspension (Fungi suspension; Cutting fluid Almasol EP, use concentration 0.05% by weight): >12
Number of inoculation cycles passed on inoculation with Fungi suspension (Fungi suspension; Cutting fluid Almasol EP, use concentration 0.10% by weight): >12
Number of inoculation cycles passed on inoculation with Fungi suspension (Fungi suspension; Cutting fluid Almasol EP, use concentration 0.15% by weight): >12
Number of inoculation cycles passed on inoculation with Fungi suspension (Fungi suspension; Cutting fluid Rondocor Kompakt, use concentration 0.05% by weight): >12
Number of inoculation cycles passed on inoculation with Fungi suspension (Fungi suspension; Cutting fluid Rondocor Kompakt, use concentration 0.10% by weight): >12
Number of inoculation cycles passed on inoculation with Fungi suspension (Fungi suspension; Cutting fluid Rondocor Kompakt, use concentration 0.15% by weight): >12
Number of inoculation cycles passed on inoculation with Fungi suspension (Fungi suspension; Cutting fluid Shell Dromus BX, use concentration 0.05% by weight): >12
Number of inoculation cycles passed on inoculation with Fungi suspension (Fungi suspension; Cutting fluid Shell Dromus BX, use concentration 0.10% by weight): >12
Number of inoculation cycles passed on inoculation with Fungi suspension (Fungi suspension; Cutting fluid Shell Dromus BX, use concentration 0.15% by weight): >12
MIC value AL (Alternaria alternata): 6.25 µg/mL (≈ 33.6 µM)
MIC value AN (Asperg. niger): 6.25 µg/mL (≈ 33.6 µM)
MIC value CA (Cand. albicans): > 6.25 µg/mL
MIC value CF (Chlorella fusca): 0.39 µg/mL (≈ 2.09 µM)
MIC value EC (E. coli): 6.25 µg/mL (≈ 33.6 µM)
MIC value FO (Fusarium oxysporum): 1.56 µg/mL (≈ 8.38 µM)
MIC value PF (Penicillium funiculosum): 1.56 µg/mL (≈ 8.38 µM)
MIC value PS (Pseudomonas aeruginosa): 6.25 µg/mL (≈ 33.6 µM)
MIC value RM (Rhodotorula mucilaginosa): 3.12 µg/mL (≈ 16.8 µM)
Fungicidal finish, colonization rating AN (Aspergillus niger (AN); use conc. 0.5% W/W, 1. week): 5 (the sample surface is colonized completely (100%))
Fungicidal finish, colonization rating AN (Aspergillus niger (AN); use conc. 0.5% W/W, 2. week): 5 (the sample surface is colonized completely (100%))
Fungicidal finish, colonization rating AN (Aspergillus niger (AN); use conc. 1.0% W/W, 1. week): 5 (the sample surface is colonized completely (100%))
Fungicidal finish, colonization rating AN (Aspergillus niger (AN); use conc. 1.0% W/W, 2. week): 5 (the sample surface is colonized completely (100%))
Fungicidal finish, colonization rating AN (Aspergillus niger (AN); use conc. 2.0% W/W, 1. week): 5 (the sample surface is colonized completely (100%))
Fungicidal finish, colonization rating AN (Aspergillus niger (AN); use conc. 2.0% W/W, 2. week): 5 (the sample surface is colonized completely (100%))
